Our source for the TGI and GI50 values is PubChem BioAssay (NCI).

SMILES strings stand for the structures.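 Exposure lasted 48 hours, with cells grown in 96-well plates and compounds tested at five concentrations. Abbreviation: GI50, concentration required for 50% inhibition of growth. TGI: total growth inhibition.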 Where only a bound is given, the exact number is not on record here.

Common to all, as to test: inhibition of tumour cell growth, NCI panel, 48 h
Test [1] has as its system SF-295 CNS.
The test system of test [2] is SK-OV-3 ovarian.
The test system of test [3] is NCI-H522 lung.
For test [4], the system named is U251 CNS.
Test [5] has as its system RPMI-8226 leukemia.
The subject of test [6] is OVCAR-3 ovarian.
For test [7], the system named is SK-MEL-2 melanoma.
For test [8], the system named is MCF7 breast.
In test [9] the test system is HCT-15 colon.
Test [10] relates to CCRF-CEM leukemia.

Turning to `CC(=O)NC(Cc1ccc(O)cc1)C(=O)O` (configuration not stated), the TGI in [1], in test [2], in test [3], in test [4], in test [5] and in [6] was above 100 µM each time. The TGI in test [7], in test [8] and in [9] was above 100 µM throughout.
`CC(=O)O[C@@H]1[C@H](C(C)C)[C@@H](OC(C)=O)C/C(C)=C/CC[C@]2(C)O[C@@H]12`: the TGI in test [1], in test [2], in test [3], in test [4], in test [5] and in test [6] was above 100 µM in each case. The TGI in test [7], in test [8] and in test [9] was above 100 µM throughout.
For the compound `CC1(C)N=[N+]([O-])C1(C)C`, the TGI in test [2], in test [10], in [3], in test [4], in test [5] and in [6] was above 100 µM each time. The TGI in [7], in test [8] and in test [9] was above 100 µM throughout.
For the compound `COc1cc2nc3n(c(=O)c2cc1OC)-c1ccc([N+](=O)[O-])cc1C3=O`, the TGI in [1], in test [2], in test [3], in [4], in test [5] and in [6] was above 100 µM in each case. The values for the TGI in test [7], in test [8] and in [9] were above 100 µM, 32 µM and above 100 µM, respectively.
As to `CN1C(=O)C2CCC(=O)N2c2cccnc21` (configuration not stated), the TGI in [1], in [10], in test [3], in test [4], in [5] and in [6] was above 100 µM each time. Further, the TGI in [7], in test [8] and in test [9] was above 100 µM in each case.
In the case of `COC(CCC[N+](C)(C)C)CC[N+](C)(C)C` (configuration not stated), the TGI in test [1], in test [2], in [10], in test [3], in test [4] and in test [5] was above 100 µM throughout. Besides, the TGI in [6], in test [8] and in test [9] was above 100 µM throughout.
In the case of `O=C1CC(NC(=O)C(F)(F)F)c2c(Br)sc(N3CCNCC3)c21` (configuration not stated), the TGI in test [1], in test [2], in test [10], in test [3], in test [4] and in [6] was above 100 µM in each case. Moreover, the TGI in [7], in [8] and in test [9] was above 100 µM throughout.
In the case of `COCO[C@@H]1C[C@H]2C(=O)Nc3ccccc3C(=O)N2C1`, the TGI in test [1] was above 100 µM; in test [2], above 100 µM; in test [3] it was 37.5 µM; in [4], above 100 µM; in test [7] it was above 100 µM; in test [8], above 100 µM. For the same compound, the TGI in test [9] is above 100 µM.
Turning to `CC1CCC(n2c3cnccc3c3cnc(Nc4ccc5c(n4)CCN(C(=O)CO)C5)nc32)CC1` (configuration not stated), the GI50 is above 100 µM in test [2]; 0.448 µM in test [10]; above 100 µM in test [3]; 0.478 µM in [4]; 1.43 µM in [5]; above 100 µM in [6]. Moreover, the GI50 is above 100 µM in [7], 0.127 µM in [8] and 0.418 µM in test [9]. The TGI in test [2], in test [10], in test [3], in test [4], in test [5] and in [6] was above 100 µM in each case. The TGI in test [7], in test [8] and in [9] was above 100 µM each time.
Turning to `S=C1Nc2ccccc2SC1c1ccccc1` (configuration not stated), the TGI in [1], in test [2], in test [10], in test [3], in test [4] and in test [5] was above 100 µM throughout. Also, the TGI in test [6], in test [8] and in [9] was above 100 µM throughout.
With `CC(C)(C)OC(=O)NCCCCC1NC(=O)[C@@H]2Cc3c([nH]c4ccccc34)C(C3CCCCC3)N2C1=O` (some centres not stated), the TGI is 63 µM in [1]; above 100 µM in [2]; above 100 µM in test [3]; above 100 µM in test [4]; 41 µM in test [5]; 47.5 µM in test [6]. For the same compound, the TGI in test [7], in test [8] and in [9] was above 100 µM throughout.
As for `O=[N+]([O-])c1ccc2c(c1)c(OCc1ccccc1)nn2Cc1ccccc1`, the TGI in [1], in [2], in [10], in test [3], in test [5] and in [6] was above 100 µM in each case. The TGI in test [7], in test [8] and in [9] was above 100 µM throughout.
For the compound `COc1cc(C2c3cc4c(cc3OC(N3CCOCC3)C2C)OCO4)ccc1O` (configuration not stated), the TGI was 38.2 µM in test [1]; above 91.8 µM in test [10]; 58.4 µM in test [3]; above 100 µM in [4]; 19.9 µM in test [5]; 45.1 µM in test [6]. Besides, the TGI is 33.6 µM in [7], above 83 µM in [8] and above 100 µM in [9].
On to `O=C1CCCc2cc3c(cc21)CC1(Cc2ccccc2C1)C3`, for which the TGI turned out to be 21.5 µM in test [1]; 97.3 µM in test [2]; 21.5 µM in test [3]; 64 µM in test [4]; 25.7 µM in test [5]; 6.1 µM in test [6]. For the same compound, the TGI in [7] is above 100 µM; in test [8], 61.2 µM; in [9], 24.4 µM.
For the compound `COc1cccc(C(=O)O[C@H]2[C@@H]3[C@]4(OC(C)=O)CO[C@@H]4C[C@H](O)[C@@]3(C)C(=O)[C@H](OC(C)=O)C3=C(C)[C@@H](OC(=O)[C@H](O)[C@@H](NC(=O)OC(C)(C)C)c4ccco4)C[C@]2(O)C3(C)C)c1`, the TGI in [1] was 0.151 µM; in test [2] it was 0.0279 µM; in [10] it was 0.368 µM; in test [3] it was 0.157 µM; in test [4], above 16.6 µM; in test [6], below 0.00375 µM. Also, the TGI in test [7] is 16.9 µM; in [8] it was above 37.5 µM; in test [9], above 16.4 µM.
Consider `CCOC(=O)c1cn2c(n1)sc1cccc(C)c12`, for which the TGI in test [1], in test [2], in test [3], in test [6], in [8] and in test [9] was above 100 µM in each case.
With `Cc1cc(Cc2cc(C)c(N)cc2N)c(N)cc1N`, the TGI in [1], in test [2], in [3], in test [4], in [5] and in test [6] was above 100 µM in each case. Further, the TGI in test [7], in [8] and in [9] was above 100 µM each time.
Turning to `C[C@]12CCC(O)CC1=CC[C@@H]1[C@@H]2CC[C@]2(C)C(=O)[C@H](n3ccnc3)C[C@@H]12` (some centres not stated), the TGI in test [1], in test [10], in test [3], in [4], in test [5] and in test [6] was above 100 µM throughout. Moreover, the TGI in [7], in test [8] and in [9] was above 100 µM each time.
`COc1ccc(-c2c(C#N)c(-c3ccc(C)cc3)n(NS(=O)(=O)c3ccc(C)cc3)c(=O)c2C#N)cc1`: the TGI in test [1] was above 100 µM; in [2] it was above 100 µM; in test [10] it was 81.6 µM; in test [3], above 100 µM; in test [4], above 100 µM; in test [5], 46.3 µM. Besides, the TGI in test [7], in test [8] and in test [9] was above 100 µM each time.
Consider `Clc1ccccc1C(SCc1ccccc1)SCc1ccccc1`, for which the TGI in [1], in test [10], in test [3], in test [4], in test [5] and in [6] was above 100 µM in each case. The TGI in test [7], in test [8] and in test [9] was above 100 µM each time.
As for `O=C1CCCSC(=O)N1Cc1ccccc1`, the TGI in [1], in test [2], in test [10], in test [3], in test [6] and in [7] was above 100 µM in each case. The TGI in [8] and in [9] was above 100 µM in each case.
